Laboratory results: patent US12522601B2, “1,3,4-oxadiazole derivative compounds as histone deacetylase 6 inhibitor, and the pharmaceutical composition comprising the same” (CHONG KUN DANG PHARMACEUTICAL CORP., priority 2020, dated 2026)

Columns and labels:
human recombinant HDAC1 = biological target: T1, human recombinant HDAC1 (Homo sapiens, UniProt Q13547); test: In vitro HDAC enzyme activity inhibition assay, HDAC1 (HDAC Fluorimetric Drug Discovery Kit); assay type: biochemical; settings: human recombinant HDAC1, Fluor de Lys-SIRT1 substrate 10 μM, 30° C. for 60 minutes
T1 construct: purchased Enzo Life Sciences, Inc. BML-SE456
Description: (§1) In order to confirm the selectivity of the compounds represented by Chemical Formula I of the present invention to HDAC6 through HDAC1 and HDAC6 enzyme activity inhibition experiments, a comparison experiment was performed using the material that has already been developed as a control group.
(§2) HDAC enzyme activity was measured using the HDAC Fluorimetric Drug Discovery Kit (Enzo Life Sciences, Inc., BML-AK511, 516). For the HDAC1 enzyme activity test, human recombinant HDAC1 (BML-SE456) was used as an enzyme source and Fluor de Lys®-SIRT1 (BNL-KI177) was used as a substrate. After dispensing 5-fold diluted compounds into a 96-well plate, 0.3 μg of enzyme and 10 μM substrate were added to each well of the plate and allowed to react at 30° C. for 60 minutes. Next, Fluor de Lys® Developer II (BML-KI176) was added and reacted for 30 minutes to complete the reaction, and then the fluorescence values (Ex 360, Em 460) were measured using a multi-plate reader (Flexstation 3, Molecular Device). The HDAC6 enzymes were tested using human recombinant HDAC6 (382180) from Calbiochem Inc., according to the same protocol as the HDAC1 enzyme activity test method. With respect to the final result values, respective IC50 values were calculated using GraphPad Prism 4.0 program, and results thereof were summarized in Table 5 below.

human recombinant HDAC6 = biological target: T2, human recombinant HDAC6 (Homo sapiens, UniProt Q9UBN7); test: In vitro HDAC enzyme activity inhibition assay, HDAC6 (HDAC Fluorimetric Drug Discovery Kit); assay type: biochemical; settings: for HDAC6 Selectivity (fold): HDAC6 versus HDAC1; for IC50: human recombinant HDAC6, same protocol as the HDAC1 test
T2 construct: purchased Calbiochem Inc. 382180
T2 sequence (Q9UBN7 1-1215): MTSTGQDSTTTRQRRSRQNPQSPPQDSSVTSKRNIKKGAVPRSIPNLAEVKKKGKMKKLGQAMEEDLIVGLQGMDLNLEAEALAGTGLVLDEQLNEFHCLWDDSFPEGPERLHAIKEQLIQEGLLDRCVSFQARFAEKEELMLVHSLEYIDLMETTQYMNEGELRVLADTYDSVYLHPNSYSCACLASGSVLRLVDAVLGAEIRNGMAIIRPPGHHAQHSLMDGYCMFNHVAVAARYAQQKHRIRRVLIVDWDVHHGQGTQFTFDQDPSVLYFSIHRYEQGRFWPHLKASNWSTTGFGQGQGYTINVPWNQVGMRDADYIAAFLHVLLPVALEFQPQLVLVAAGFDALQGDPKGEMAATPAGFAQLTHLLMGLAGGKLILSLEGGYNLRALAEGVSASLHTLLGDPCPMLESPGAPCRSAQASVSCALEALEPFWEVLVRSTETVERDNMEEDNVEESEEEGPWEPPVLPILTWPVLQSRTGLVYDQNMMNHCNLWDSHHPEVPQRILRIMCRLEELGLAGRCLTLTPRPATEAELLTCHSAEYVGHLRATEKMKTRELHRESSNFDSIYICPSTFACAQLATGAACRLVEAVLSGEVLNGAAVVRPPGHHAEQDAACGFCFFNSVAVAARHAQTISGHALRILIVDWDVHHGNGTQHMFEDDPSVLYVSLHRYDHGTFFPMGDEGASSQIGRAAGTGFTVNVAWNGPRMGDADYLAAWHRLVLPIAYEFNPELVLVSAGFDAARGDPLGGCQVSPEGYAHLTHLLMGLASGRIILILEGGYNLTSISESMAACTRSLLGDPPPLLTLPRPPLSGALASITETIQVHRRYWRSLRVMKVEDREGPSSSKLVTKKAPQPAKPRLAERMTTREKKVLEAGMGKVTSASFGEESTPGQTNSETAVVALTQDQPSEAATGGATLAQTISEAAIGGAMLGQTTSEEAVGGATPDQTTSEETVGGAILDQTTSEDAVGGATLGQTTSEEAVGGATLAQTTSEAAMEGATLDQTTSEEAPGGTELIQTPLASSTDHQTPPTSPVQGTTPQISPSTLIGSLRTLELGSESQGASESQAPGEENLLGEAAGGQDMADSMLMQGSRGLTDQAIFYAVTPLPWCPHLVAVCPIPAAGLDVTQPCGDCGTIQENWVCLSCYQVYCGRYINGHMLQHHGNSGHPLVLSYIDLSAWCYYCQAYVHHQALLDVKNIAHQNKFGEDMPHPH
Description: as §1, §2

T1 sequence (Q13547 whole entry): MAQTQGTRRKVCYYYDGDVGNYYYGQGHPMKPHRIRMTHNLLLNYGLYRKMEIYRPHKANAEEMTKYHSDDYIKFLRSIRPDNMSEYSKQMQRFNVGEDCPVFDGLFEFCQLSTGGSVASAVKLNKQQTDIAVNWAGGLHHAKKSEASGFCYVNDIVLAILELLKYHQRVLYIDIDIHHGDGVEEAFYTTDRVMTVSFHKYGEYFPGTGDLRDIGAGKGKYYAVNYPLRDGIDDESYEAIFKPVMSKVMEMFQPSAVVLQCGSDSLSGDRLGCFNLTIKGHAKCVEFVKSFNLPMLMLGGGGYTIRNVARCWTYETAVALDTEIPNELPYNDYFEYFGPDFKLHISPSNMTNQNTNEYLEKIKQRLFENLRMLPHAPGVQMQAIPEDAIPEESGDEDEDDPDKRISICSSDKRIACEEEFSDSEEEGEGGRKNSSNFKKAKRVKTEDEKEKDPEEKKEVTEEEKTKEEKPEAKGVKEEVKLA

SMILES	IC50 (human recombinant HDAC1)	HDAC6 Selectivity (fold) (human recombinant HDAC6)	IC50 (human recombinant HDAC6)
FC(F)c1nnc(-c2ccn3cc(CNC4CCCCC4)nc3c2)o1 [Compound 3678, N-((7-(5-(difluoromethyl)-1,3,4-oxadiazol-2-yl)imidazo[1,2-a]pyridin-2-yl)methyl)cyclohexanamine]	> 50 µM	170 fold	0.294 µM
Cc1cccc(NCc2cn3ccc(-c4nnc(C(F)F)o4)cc3n2)c1 [Compound 3679, N-((7-(5-(difluoromethyl)-1,3,4-oxadiazol-2-yl)imidazo[1,2-a]pyridin-2-yl)methyl)-3-methylaniline]	> 50 µM	341 fold	0.147 µM
FC(F)c1nnc(-c2ccn3cc(COc4ccccc4)nc3c2)o1 [Compound 3719, 2-(difluoromethyl)-5-(2-(phenoxymethyl)imidazo[1,2-a]pyridin-7-yl)-1,3,4-oxadiazole]	> 50 µM	237 fold	0.211 µM
Cc1cccc(OCc2cn3ccc(-c4nnc(C(F)F)o4)cc3n2)c1 [Compound 3720, 2-(difluoromethyl)-5-(2-((m-tolyloxy)methyl)imidazo[1,2-a]pyridin-7-yl)-1,3,4-oxadiazole]	> 50 µM	121 fold	0.413 µM
CC(=O)c1cccc(OCc2cn3ccc(-c4nnc(C(F)F)o4)cc3n2)c1 [Compound 3721, 1-(3-((7-(5-(difluoromethyl)-1,3,4-oxadiazol-2-yl)imidazo[1,2-a]pyridin-2-yl)methoxy)phenyl)ethan-1-one]	> 50 µM	123 fold	0.406 µM
Fc1cccc(OCc2cn3ccc(-c4nnc(C(F)F)o4)cc3n2)c1 [Compound 3722, 2-(difluoromethyl)-5-(2-((3-fluorophenoxy)methyl)imidazo[1,2-a]pyridin-7-yl)-1,3,4-oxadiazole]	> 50 µM	174 fold	0.287 µM
Fc1ccc(OCc2cn3ccc(-c4nnc(C(F)F)o4)cc3n2)cc1F [Compound 3723, 2-(difluoromethyl)-5-(2-((3,4-difluorophenoxy)methyl)imidazo[1,2-a]pyridin-7-yl)-1,3,4-oxadiazole]	> 50 µM	174 fold	0.24 µM
FC(F)c1nnc(-c2ccn3cc(COc4ccc(C(F)(F)F)cc4)nc3c2)o1 [Compound 3724, 2-(difluoromethyl)-5-(2-((4-(trifluoromethyl)phenoxy)methyl)imidazo[1,2-a]pyridin-7-yl)-1,3,4-oxadiazole]	> 50 µM	56 fold	0.893 µM
CN(Cc1cn2ccc(-c3nnc(C(F)F)o3)cc2n1)c1ccccc1 [Compound 3725, N-((7-(5-(difluoromethyl)-1,3,4-oxadiazol-2-yl)imidazo[1,2-a]pyridin-2-yl)methyl)-N-methylaniline]	> 50 µM	282 fold	0.177 µM
CN1CCC(C(=O)N(Cc2cn3ccc(-c4nnc(C(F)F)o4)cc3n2)c2ccccc2)CC1 [Compound 3782, N-((7-(5-(difluoromethyl)-1,3,4-oxadiazol-2-yl)imidazo[1,2-a]pyridin-2-yl)methyl)-1-methyl-N-phenylpiperidine-4-carboxamide]	> 50 µM	740 fold	0.0676 µM
O=C(C1CCN(C2COC2)CC1)N(Cc1cn2ccc(-c3nnc(C(F)F)o3)cc2n1)c1ccccc1 [Compound 3783, N-((7-(5-(difluoromethyl)-1,3,4-oxadiazol-2-yl)imidazo[1,2-a]pyridin-2-yl)methyl)-1-(oxetan-3-yl)-N-phenylpiperidine-4-carboxamide]	> 50 µM	696 fold	0.0718 µM
CN1CCN(C(=O)N(Cc2cn3ccc(-c4nnc(C(F)F)o4)cc3n2)c2ccccc2)CC1 [Compound 3784, N-((7-(5-(difluoromethyl)-1,3,4-oxadiazol-2-yl)imidazo[1,2-a]pyridin-2-yl)methyl)-4-methyl-N-phenylpiperazine-1-carboxamide]	> 50 µM	727 fold	0.0688 µM
O=C(N1CCN(C2COC2)CC1)N(Cc1cn2ccc(-c3nnc(C(F)F)o3)cc2n1)c1ccccc1 [Compound 3785]	> 50 µM	437 fold	0.114 µM
CCN1CCN(C(=O)N(Cc2cn3ccc(-c4nnc(C(F)F)o4)cc3n2)c2ccccc2)CC1 [Compound 4033, N-((7-(5-(difluoromethyl)-1,3,4-oxadiazol-2-yl)imidazo[1,2-a]pyridin-2-yl)methyl)-4-ethyl-N-phenylpiperazine-1-carboxamide]	> 50 µM	538 fold	0.093 µM
CC(C)N1CCN(C(=O)N(Cc2cn3ccc(-c4nnc(C(F)F)o4)cc3n2)c2ccccc2)CC1 [Compound 4034, N-((7-(5-(difluoromethyl)-1,3,4-oxadiazol-2-yl)imidazo[1,2-a]pyridin-2-yl)methyl)-4-isopropyl-N-phenylpiperazine-1-carboxamide]	> 50 µM	485 fold	0.103 µM
CC(CO)N1CCN(C(=O)N(Cc2cn3ccc(-c4nnc(C(F)F)o4)cc3n2)c2ccccc2)CC1 (stereo not drawn) [Compound 4035, N-((7-(5-(difluoromethyl)-1,3,4-oxadiazol-2-yl)imidazo[1,2-a]pyridin-2-yl)methyl)-4-(1-hydroxypropan-2-yl)-N-phenylpiperazine-1-carboxamide]	> 50 µM	168 fold	0.298 µM
O=C(N1CCN(C2CCC2)CC1)N(Cc1cn2ccc(-c3nnc(C(F)F)o3)cc2n1)c1ccccc1 [Compound 4036, 4-cyclobutyl-N-((7-(5-(difluoromethyl)-1,3,4-oxadiazol-2-yl)imidazo[1,2-a]pyridin-2-yl)methyl)-N-phenylpiperazine-1-carboxamide]	> 50 µM	321 fold	0.156 µM
O=C(N1CCN(C2CCCCC2)CC1)N(Cc1cn2ccc(-c3nnc(C(F)F)o3)cc2n1)c1ccccc1 [Compound 4037, 4-cyclohexyl-N-((7-(5-(difluoromethyl)-1,3,4-oxadiazol-2-yl)imidazo[1,2-a]pyridin-2-yl)methyl)-N-phenylpiperazine-1-carboxamide]	> 50 µM	404 fold	0.124 µM
O=C(N1CCN(C2CCOCC2)CC1)N(Cc1cn2ccc(-c3nnc(C(F)F)o3)cc2n1)c1ccccc1 [Compound 4038, N-((7-(5-(difluoromethyl)-1,3,4-oxadiazol-2-yl)imidazo[1,2-a]pyridin-2-yl)methyl)-N-phenyl-4-(tetrahydro-2H-pyran-4-yl)piperazine-1-carboxamide]	> 50 µM	382 fold	0.131 µM
O=C(N1CCN(C2CCC(F)(F)CC2)CC1)N(Cc1cn2ccc(-c3nnc(C(F)F)o3)cc2n1)c1ccccc1 [Compound 4039, 4-(4,4-difluorocyclohexyl)-N-((7-(5-(difluoromethyl)-1,3,4-oxadiazol-2-yl)imidazo[1,2-a]pyridin-2-yl)methyl)-N-phenylpiperazine-1-carboxamide]	> 50 µM	338 fold	0.148 µM
